Test results from patent US20220106328A1, “HETEROCYCLIC COMPOUNDS” (Hoffmann-La Roche Inc., priority 2019, published 2022).

Molecular target: T1, MAGL (Homo sapiens, UniProt Q99685)
T1 sequence (Q99685 1-303): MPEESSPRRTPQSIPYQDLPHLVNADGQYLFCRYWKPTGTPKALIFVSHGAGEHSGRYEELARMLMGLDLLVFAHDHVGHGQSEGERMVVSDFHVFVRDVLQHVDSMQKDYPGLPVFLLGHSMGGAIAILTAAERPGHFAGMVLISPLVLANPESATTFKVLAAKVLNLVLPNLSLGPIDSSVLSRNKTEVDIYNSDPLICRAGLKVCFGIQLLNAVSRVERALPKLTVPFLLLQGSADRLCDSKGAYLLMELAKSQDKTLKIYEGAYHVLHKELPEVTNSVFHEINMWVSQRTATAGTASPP
Assay: 2-AG assay (MAGL inhibitory activity; hydrolysis of 2-arachidonoylglycerol to arachidonic acid followed by mass spectrometry)
Format: biochemical
Settings: 8 μM 2-arachidonoylglycerol, 15 min pre-incubation, 30 min incubation at rt, RapidFire MS read-out
Protocol: Compounds were profiled for MAGL inhibitory activity by determining the enzymatic activity by following the hydrolysis of the natural substrate 2-arachidonoylglycerol resulting in arachidonic acid, which can be followed by mass spectrometry. This assay is hereinafter abbreviated “2-AG assay”.
A C18 SPE cartridge (G9205A) was used in an ACN/water liquid setup. […] The activity of the compounds was calculated based on the ratio of intensities [arachidonic acid/d8-arachidonic acid].

Row | IC50 | SMILES
1 | 95 nM | O=C1COC2CCN(C(=O)N3CC(c4ccc(C5(C(F)(F)F)CC5)cc4)C3)CC2N1 (single isomer, unassigned) [Example 3, (+)- or (−)-trans-6-[3-[4-[1-(Trifluoromethyl)cyclopropyl]phenyl]azetidine-1-carbonyl]-4,4a,5,7,8,8a-hexahydropyrido[4,3-b][1,4]oxazin-3-one]
2 | 208 nM | O=C1CO[C@@H]2CCN(C(=O)N3CCC(C(c4ccc(F)cc4)c4ccc(F)cc4)CC3)C[C@H]2N1 (single isomer, unassigned) [Example 24, (+)- or (−)-trans-6-[4-[Bis(4-fluorophenyl)methyl]piperidine-1-carbonyl]-4,4a,5,7,8,8a-hexahydropyrido[4,3-b][1,4]oxazin-3-one]
3 | 143 nM | O=C1COC2CCN(C(=O)N3CC(OCc4ccc(C(F)(F)F)cc4F)C3)CC2N1 (single isomer, unassigned) [Example 6, (−)- or (+)-trans-6-[3-[[2-Fluoro-4-(trifluoromethyl)phenyl]methoxy]azetidine-1-carbonyl]-4,4a,5,7,8,8a-hexahydropyrido[4,3-b][1,4]oxazin-3-one]
4 | 220 nM | O=C1CO[C@@H]2CCN(C(=O)N3CC(OCc4ccc(C(F)(F)F)cc4Cl)C3)C[C@H]2N1 (single isomer, unassigned) [Example 20, (+)- or (−)-trans-6-[3-[[2-Chloro-4-(trifluoromethyl)phenyl]methoxy]azetidine-1-carbonyl]-4,4a,5,7,8,8a-hexahydropyrido[4,3-b][1,4]oxazin-3-one]
5 | 7 nM | O=C1CO[C@H]2CCN(C(=O)N3CCC4(CC3)CC(Oc3ccc(C(F)(F)F)cc3F)C4)C[C@@H]2N1 (single isomer, unassigned) [Example 27, (−)- or (+)-trans-6-[2-[2-Fluoro-4-(trifluoromethyl)phenoxy]-7-azaspiro[3.5]nonane-7-carbonyl]-4,4a,5,7,8,8a-hexahydropyrido[4,3-b][1,4]oxazin-3-one]
6 | 93 nM | O=C1CO[C@@H]2CCN(C(=O)N3CC(c4ccc(-c5ccc(F)cc5F)cc4)C3)C[C@H]2N1 (single isomer, unassigned) [Example 13, (+)- or (−)-trans-6-[3-[4-(2,4-Difluorophenyl)phenyl]azetidine-1-carbonyl]-4,4a,5,7,8,8a-hexahydropyrido[4,3-b][1,4]oxazin-3-one]
7 | 411 nM | O=C1CO[C@H]2CCN(C(=O)N3CC(OCc4ccc(OC(F)(F)F)cc4)C3)C[C@@H]2N1 (single isomer, unassigned) [Example 23, (−)- or (+)-trans-6-[3-[[4-(Trifluoromethoxy)phenyl]methoxy]azetidine-1-carbonyl]-4,4a,5,7,8,8a-hexahydropyrido[4,3-b][1,4]oxazin-3-one]
8 | 118 nM | O=C1CO[C@@H]2CCN(C(=O)N3CCC4(CC3)CC(Oc3ccc(C(F)(F)F)cc3F)C4)C[C@H]2N1 (single isomer, unassigned) [Example 26, (+)- or (−)-trans-6-[2-[2-Fluoro-4-(trifluoromethyl)phenoxy]-7-azaspiro[3.5]nonane-7-carbonyl]-4,4a,5,7,8,8a-hexahydropyrido[4,3-b][1,4]oxazin-3-one]
9 | 235 nM | CC(C)(C)c1ccc(C2CN(C(=O)N3CCC4OCC(=O)NC4C3)C2)cc1 (single isomer, unassigned) [Example 1, (+)- or (−)-trans-6-[3-(4-tert-Butylphenyl)azetidine-1-carbonyl]-4,4a,5,7,8,8a-hexahydropyrido[4,3-b][1,4]oxazin-3-one]
10 | 2010 nM | O=C(N1CC(OCc2ccc(C(F)(F)F)cc2F)C1)N1CC[C@H]2OCCN[C@@H]2C1 (racemic) [Example 31, [3-[[2-Fluoro-4-(trifluoromethyl)phenyl]methoxy]azetidin-1-yl]-[rac-(4aR,8aR)-2,3,4,4a,5,7,8,8a-octahydropyrido[4,3-b][1,4]oxazin-6-yl]methanone]
11 | 920 nM | O=C1CO[C@@H]2CCN(C(=O)N3CC(OCc4ccc(OC(F)(F)F)cc4)C3)C[C@H]2N1 (single isomer, unassigned) [Example 22, (+)- or (−)-trans-6-[3-[[4-(Trifluoromethoxy)phenyl]methoxy]azetidine-1-carbonyl]-4,4a,5,7,8,8a-hexahydropyrido[4,3-b][1,4]oxazin-3-one]
12 | 15 nM | O=C1COC2CCN(C(=O)N3CC(c4ccc(C5(C(F)(F)F)CC5)cc4)C3)CC2N1 (single isomer, unassigned) [Example 4, (−)- or (+)-trans-6-[3-[4-[1-(Trifluoromethyl)cyclopropyl]phenyl]azetidine-1-carbonyl]-4,4a,5,7,8,8a-hexahydropyrido[4,3-b][1,4]oxazin-3-one]
13 | 58 nM | O=C1CO[C@H]2CCN(C(=O)N3CC(c4ccc(CC(F)(F)F)cc4)C3)C[C@@H]2N1 (single isomer, unassigned) [Example 16, (−)- or (+)-trans-6-[3-[4-(2,2,2-Trifluoroethyl)phenyl]azetidine-1-carbonyl]-4,4a,5,7,8,8a-hexahydropyrido[4,3-b][1,4]oxazin-3-one]
14 | 424 nM | O=C1CO[C@@H]2CCN(C(=O)N3CC(c4ccc(OC(F)(F)F)c(Cl)c4)C3)C[C@H]2N1 (single isomer, unassigned) [Example 7, (+)- or (−)-trans-6-[3-[3-Chloro-4-(trifluoromethoxy)phenyl]azetidine-1-carbonyl]-4,4a,5,7,8,8a-hexahydropyrido[4,3-b][1,4]oxazin-3-one]
15 | 12 nM | O=C1CO[C@H]2CCN(C(=O)N3CC4(CC(Cc5ccc(F)cc5F)C4)C3)C[C@@H]2N1 (single isomer, unassigned) [Example 18, (−)- or (+)-trans-6-[6-[(2,4-Difluorophenyl)methyl]-2-azaspiro[3.3]heptane-2-carbonyl]-4,4a,5,7,8,8a-hexahydropyrido[4,3-b][1,4]oxazin-3-one]
16 | 47 nM | O=C1CO[C@@H]2CCN(C(=O)N3CC(c4ccc(Oc5ccccc5)cc4)C3)C[C@H]2N1 (single isomer, unassigned) [Example 11, (+)- or (−)-trans-6-[3-(4-Phenoxyphenyl)azetidine-1-carbonyl]-4,4a,5,7,8,8a-hexahydropyrido[4,3-b][1,4]oxazin-3-one]
17 | 327 nM | O=C1COC2CCN(C(=O)N3CC(OCc4ccc(C(F)(F)F)cc4F)C3)CC2N1 (single isomer, unassigned) [Example 5, (+)- or (−)-trans-6-[3-[[2-Fluoro-4-(trifluoromethyl)phenyl]methoxy]azetidine-1-carbonyl]-4,4a,5,7,8,8a-hexahydropyrido[4,3-b][1,4]oxazin-3-one]
18 | 357 nM | O=C1CO[C@@H]2CCN(C(=O)N3CC(c4ccc(CC(F)(F)F)cc4)C3)C[C@H]2N1 (single isomer, unassigned) [Example 15, (+)- or (−)-trans-6-[3-[4-(2,2,2-Trifluoroethyl)phenyl]azetidine-1-carbonyl]-4,4a,5,7,8,8a-hexahydropyrido[4,3-b][1,4]oxazin-3-one]
19 | 2560 nM | O=C1CO[C@@H]2CCN(C(=O)N3CCC(Cc4ccc(C(F)(F)F)cc4)CC3)C[C@H]2N1 (single isomer, unassigned) [Example 28, (+)- or (−)-trans-6-[4-[[4-(Trifluoromethyl)phenyl]methyl]piperidine-1-carbonyl]-4,4a,5,7,8,8a-hexahydropyrido[4,3-b][1,4]oxazin-3-one]
20 | 1300 nM | O=C1CO[C@H]2CCN(C(=O)N3CCC(Cc4ccc(C(F)(F)F)cc4)CC3)C[C@@H]2N1 (single isomer, unassigned) [Example 29, (−)- or (+)-trans-6-[4-[[4-(Trifluoromethyl)phenyl]methyl]piperidine-1-carbonyl]-4,4a,5,7,8,8a-hexahydropyrido[4,3-b][1,4]oxazin-3-one]
21 | 5 nM | O=C1CO[C@H]2CCN(C(=O)N3CCC(C(c4ccc(F)cc4)c4ccc(F)cc4)CC3)C[C@@H]2N1 (single isomer, unassigned) [Example 25, (−)- or (+)-trans-6-[4-[Bis(4-fluorophenyl)methyl]piperidine-1-carbonyl]-4,4a,5,7,8,8a-hexahydropyrido[4,3-b][1,4]oxazin-3-one]
22 | 32 nM | O=C1CO[C@H]2CCN(C(=O)N3CC(c4ccc(Oc5ccccc5Cl)nc4)C3)C[C@@H]2N1 (single isomer, unassigned) [Example 19, (−)- or (+)-trans-6-[3-[6-(2-Chlorophenoxy)-3-pyridyl]azetidine-1-carbonyl]-4,4a,5,7,8,8a-hexahydropyrido[4,3-b][1,4]oxazin-3-one]
23 | 7 nM | O=C1CO[C@H]2CCN(C(=O)N3CC(c4ccc(Oc5ccccc5)cc4)C3)C[C@@H]2N1 (single isomer, unassigned) [Example 12, (−)- or (+)-trans-6-[3-(4-Phenoxyphenyl)azetidine-1-carbonyl]-4,4a,5,7,8,8a-hexahydropyrido[4,3-b][1,4]oxazin-3-one]
24 | 530 nM | O=C1CO[C@H]2CCN(C(=O)N3CCC(c4cn(CCO)c5ccc(Cl)cc45)CC3)C[C@@H]2N1 (single isomer, unassigned) [Example 30, (−)- or (+)-trans-6-[4-[5-Chloro-1-(2-hydroxyethyl)indol-3-yl]piperidine-1-carbonyl]-4,4a,5,7,8,8a-hexahydropyrido[4,3-b][1,4]oxazin-3-one]
